Measurements taken from patent US10745416B2, “Macrocyclic compounds for treating disease” (Turning Point Therapeutics, Inc., priority 2017, dated 2020).

How the values were obtained:
Experiment in all cases: Cell proliferation assay (CellTiter-Glo, 72 hours)
KM12 cell (TPM3-TRKA) = type: cell-based, human; settings: Homo sapiens, KM12, anti-cell proliferation
Description: (§1) Human medulla thyroid carcinoma cell line TT (containing RET […] mutation) and acute myelogenous cell line KG-1 were purchased from ATCC. Human colon cancer cell line KMI2 (containing TPM3-TRKA) was obtained from NCI.
(§2) Two thousand cells per well were seeded in 384 well white plate for 24 hrs, and then treated with compounds for 72 hours (37° C., 5% CO2). Cell proliferation was measured using CellTiter-Glo luciferase-based ATP detection assay (Promega) following the manufactures's protocol. IC50 determinations were performed using GraphPad Prism software (GraphPad, Inc., San Diego, Calif.).

KG-1 = type: cell-based, human; settings: Homo sapiens, KG-1, anti-cell proliferation
Description: as §1, §2

BaF3 EML4-ALK = target: T1, BaF3 EML4-ALK (Homo sapiens, UniProt Q9UM73); type: cell-based; settings: anti-cell proliferation
T1 construct: The EML4-ALK gene (variant 1) was synthesized at GenScript and cloned into pCDH-CMV-MCS-EF1-Puro plasmid (System Biosciences, Inc); fused on or other part: Q9HC35 (Echinoderm microtubule-associated protein-like 4)
Description: The EML4-ALK gene (variant 1) was synthesized at GenScript and cloned into pCDH-CMV-MCS-EF1-Puro plasmid (System Biosciences, Inc). Ba/F3-EML4-ALK wild type were generated by transducing Ba/F3 cells with lentivirus containing EML4-ALK wide type. Stable cell lines were selected by puromycin treatment, followed by IL-3 withdrawal. Briefly, 5×10^6 Ba/F3 cells were transduced with lentivirus supernatant in the presence of 8 μg/mL protamine sulfate. The transduced cells were subsequently selected with 1 μg/mL puromycin in the presence of IL3-containing medium RPMI1640, plus 10% FBS. After 10-12 days of selection, the surviving cells were further selected for IL3 independent growth.
as §2

BaF3 KIF5B-RET = target: T2, BaF3 KIF5B-RET (Homo sapiens, UniProt P07949); type: cell-based; settings: anti-cell proliferation, read-out: BaF3 KIF5B-RET IC50
T2 construct: fused on or other part: P33176 (Kinesin-1 heavy chain)
Description: (§3) The KIF5B-RET gene was synthesized at GenScript and cloned into pCDH-CMV-MCS-EF1-Puro plasmid (System Biosciences, Inc). KIF5B-RET point mutation V804M was generated at GenScript by PCR and confirmed by sequencing. Ba/F3-KIF5B-RET wild type and mutant were generated by transducing Ba/F3 cells with lentivirus containing KIF5B-RET wide type or mutant. Stable cell lines were selected by puromycin treatment, followed by IL-3 withdrawal. Briefly, 5×10^6 Ba/F3 cells were transduced with lentivirus supernatant in the presence of 8 μg/mL protamine sulfate. The transduced cells were subsequently selected with 1 µg/mL puromycin in the presence of IL3-containing medium RPMI1640, plus 10% FBS. After 10-12 days of selection, the surviving cells were further selected for IL3 independent growth.
as §2

BaF3 KIF5B-RET_G810R = target: T3, BaF3 KIF5B-RET_G810R (Homo sapiens, UniProt P07949, G810R, cells depend on it); type: cell-based; settings: anti-cell proliferation, read-out: BaF3 KIF5B-RET_G810R IC50
T3 construct: fused on or other part: P33176 (Kinesin-1 heavy chain)
Description: [The source words this procedure for another variant and reports this variant under the same test.] as §3, §2

BaF3 KIF5B-RET_V804M = target: T4, BaF3 KIF5B-RET_V804M (Homo sapiens, UniProt P07949, V804M, cells depend on it); type: cell-based; settings: anti-cell proliferation, read-out: BaF3 KIF5B-RET_V804M IC50
T4 construct: fused on or other part: P33176 (Kinesin-1 heavy chain)
Description: as §3, §2

T3 sequence (P07949 whole entry G810R, the tested form may be a part): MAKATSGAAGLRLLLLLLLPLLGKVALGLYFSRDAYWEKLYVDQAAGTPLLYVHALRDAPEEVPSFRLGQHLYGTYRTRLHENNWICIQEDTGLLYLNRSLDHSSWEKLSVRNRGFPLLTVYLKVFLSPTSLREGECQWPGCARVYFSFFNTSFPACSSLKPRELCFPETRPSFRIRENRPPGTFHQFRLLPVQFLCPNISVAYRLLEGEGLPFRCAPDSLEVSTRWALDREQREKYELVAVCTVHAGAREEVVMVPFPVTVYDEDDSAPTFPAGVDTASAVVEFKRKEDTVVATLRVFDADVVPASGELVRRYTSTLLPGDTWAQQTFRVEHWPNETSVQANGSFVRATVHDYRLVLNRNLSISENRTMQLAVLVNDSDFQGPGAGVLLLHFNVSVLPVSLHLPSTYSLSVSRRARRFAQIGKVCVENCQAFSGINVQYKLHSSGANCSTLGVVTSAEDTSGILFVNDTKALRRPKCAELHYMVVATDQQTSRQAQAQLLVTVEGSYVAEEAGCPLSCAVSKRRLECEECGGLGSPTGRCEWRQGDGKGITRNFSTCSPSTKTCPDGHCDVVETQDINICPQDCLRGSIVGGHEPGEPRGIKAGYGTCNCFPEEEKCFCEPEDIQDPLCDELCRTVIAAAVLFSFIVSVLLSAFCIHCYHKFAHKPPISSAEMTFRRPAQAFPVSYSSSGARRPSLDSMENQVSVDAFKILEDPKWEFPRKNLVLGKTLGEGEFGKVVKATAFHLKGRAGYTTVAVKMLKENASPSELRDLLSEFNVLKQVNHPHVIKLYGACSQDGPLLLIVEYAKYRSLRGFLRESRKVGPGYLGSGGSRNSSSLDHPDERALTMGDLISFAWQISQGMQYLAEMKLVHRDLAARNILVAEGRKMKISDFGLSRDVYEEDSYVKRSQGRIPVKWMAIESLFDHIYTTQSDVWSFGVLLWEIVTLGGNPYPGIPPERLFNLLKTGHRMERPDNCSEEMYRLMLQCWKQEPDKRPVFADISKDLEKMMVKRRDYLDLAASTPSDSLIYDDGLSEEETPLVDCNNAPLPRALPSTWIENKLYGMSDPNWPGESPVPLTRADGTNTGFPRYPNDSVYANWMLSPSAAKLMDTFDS
T4 sequence (P07949 whole entry V804M, the tested form may be a part): as the sequence (P07949 whole entry G810R, the tested form may be a part) above, with V804M, R810G counted along it
T1 sequence (Q9UM73 whole entry, change not shown, the tested form may be a part): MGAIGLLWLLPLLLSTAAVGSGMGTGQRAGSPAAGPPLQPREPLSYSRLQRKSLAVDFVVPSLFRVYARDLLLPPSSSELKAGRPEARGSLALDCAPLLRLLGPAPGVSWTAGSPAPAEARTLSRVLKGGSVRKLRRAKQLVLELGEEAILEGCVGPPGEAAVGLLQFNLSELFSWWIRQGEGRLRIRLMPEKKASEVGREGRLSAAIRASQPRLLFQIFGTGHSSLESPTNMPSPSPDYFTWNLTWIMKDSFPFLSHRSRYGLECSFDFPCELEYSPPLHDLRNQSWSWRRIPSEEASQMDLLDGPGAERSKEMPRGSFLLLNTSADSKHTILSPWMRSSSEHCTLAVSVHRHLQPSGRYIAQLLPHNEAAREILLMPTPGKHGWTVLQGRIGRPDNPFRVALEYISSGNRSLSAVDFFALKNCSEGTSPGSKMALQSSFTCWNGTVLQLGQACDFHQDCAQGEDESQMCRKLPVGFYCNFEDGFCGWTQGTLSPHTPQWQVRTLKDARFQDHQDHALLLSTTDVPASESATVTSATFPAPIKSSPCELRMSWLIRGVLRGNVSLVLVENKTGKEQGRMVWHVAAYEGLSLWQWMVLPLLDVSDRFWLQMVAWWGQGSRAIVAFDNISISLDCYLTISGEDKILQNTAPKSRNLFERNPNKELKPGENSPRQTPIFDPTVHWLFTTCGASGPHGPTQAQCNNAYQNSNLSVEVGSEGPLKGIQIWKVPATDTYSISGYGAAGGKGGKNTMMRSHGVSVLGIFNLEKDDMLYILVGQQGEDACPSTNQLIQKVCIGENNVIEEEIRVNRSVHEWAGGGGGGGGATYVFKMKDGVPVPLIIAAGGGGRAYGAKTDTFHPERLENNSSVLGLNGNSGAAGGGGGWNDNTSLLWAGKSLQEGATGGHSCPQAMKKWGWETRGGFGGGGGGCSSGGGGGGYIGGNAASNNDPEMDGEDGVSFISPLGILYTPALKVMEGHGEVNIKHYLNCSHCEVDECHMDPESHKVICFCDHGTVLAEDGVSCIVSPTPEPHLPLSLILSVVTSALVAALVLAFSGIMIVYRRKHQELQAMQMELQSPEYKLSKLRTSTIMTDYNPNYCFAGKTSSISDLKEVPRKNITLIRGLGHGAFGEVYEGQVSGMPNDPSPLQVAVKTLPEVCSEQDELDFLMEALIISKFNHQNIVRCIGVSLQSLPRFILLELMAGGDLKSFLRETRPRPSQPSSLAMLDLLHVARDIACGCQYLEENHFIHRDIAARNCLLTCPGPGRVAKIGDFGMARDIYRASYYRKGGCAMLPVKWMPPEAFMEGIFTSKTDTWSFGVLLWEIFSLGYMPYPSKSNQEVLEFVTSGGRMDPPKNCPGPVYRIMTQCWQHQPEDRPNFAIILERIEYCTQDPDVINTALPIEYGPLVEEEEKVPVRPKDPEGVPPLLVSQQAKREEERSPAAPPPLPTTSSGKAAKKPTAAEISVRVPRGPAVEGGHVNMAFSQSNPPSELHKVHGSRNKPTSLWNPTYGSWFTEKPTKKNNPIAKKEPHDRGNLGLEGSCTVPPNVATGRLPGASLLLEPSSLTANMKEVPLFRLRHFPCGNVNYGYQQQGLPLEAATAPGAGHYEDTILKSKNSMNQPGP
T2 sequence (P07949 whole entry, change not shown, the tested form may be a part): as the sequence (P07949 whole entry G810R, the tested form may be a part) above, with R810G counted along it

GI50 (BaF3 EML4-ALK) [nM]	GI50 (BaF3 KIF5B-RET) [nM]	GI50 (BaF3 KIF5B-RET_G810R) [nM]	GI50 (BaF3 KIF5B-RET_V804M) [nM]	SMILES	IC50 (KM12 cell (TPM3-TRKA)) [nM]	IC50 (KG-1) [nM]
675	0.2	99.2	1840	C[C@@H]1COc2c(F)cc(F)cc2CN2c3nc4c(cnn4cc3O[C@H]3CCC[C@H]32)C(=O)N1 [Compound 7, (3aR,12R,20aS)-7,9-difluoro-12-methyl-2,3,3a,12,13,20a-hexahydro-1H,5H-17-19-(metheno)cyclopenta[5,6][1,4] oxazino[3,4-i]pyrazolo[4,3-f][1,4,8,10]benzoxatriazacyclotridecin-14(11H)-one]	37	344
5000	342	1120	> 10000	C[C@@H]1COc2ncc(F)cc2CN2c3nc4c(cnn4cc3O[C@H]3CCCC[C@H]32)C(=O)N1 [Compound 13, (4aR,13S,21aS)-8-fluoro-13-methyl-1,2,3,4,4a,13,14,21a-octahydro-6H-18, 20-(metheno)pyrazolo[4′,3′:6,7]pyrido [3′,2′:12,13][1,4,8, 10]oxatriazacyclotridecino[9,10-c][1,4]benzoxazin-15(12H)-one]	28.4	452
364	1.1	8.7	1240	C[C@H]1CCNC(=O)c2cnn3cc4c(nc23)N(Cc2cc(F)cnc2O1)[C@@H]1CCC[C@@H]1O4 [Compound 15, (3aR,11S,21aS)-7-fluoro-11-methyl-2,3,3a,12,13,14,21a-octahydro-1H,5H, 15H-18,20-(metheno)cyclopenta[5,6] [1,4]oxazino[4,3-e]pyrazolo[3,4-h]pyrido [2,3-b][1,5,7,11]oxatriazacyclotetradecin-15-one]	5.1	5.2
340	16.6	41.2	5000	C[C@@H]1CCOc2ncc(F)cc2CN2c3nc4c(cnn4cc3O[C@H]3CCC[C@H]32)C(=O)N1 [Compound 16, (3aR,13R,21aS)-7-fluoro-13-methyl-2,3,3a,11,12,13,14,21a-octahydro-1H,5H, 15H-18,20-(metheno)cyclopenta[5,6] [1,4]oxazino[4,3-e]pyrazolo[3,4-h]pyrido [2,3-b][1,5,7,11]oxatriazacyclotetradecin-15-one]	45.5	47.4
616	1.8	10.7	2730	C[C@H]1CNC(=O)c2cnn3cc4c(nc23)N(Cc2cc(F)cnc2OC1)[C@@H]1CCC[C@@H]1O4 [Compound 17, (3aR,12S,21aS)-7-fluoro-12-methyl-2,3,3a,11,12,13,14,21a-octahydro-1H,5H, 15H-18,20-(metheno)cyclopenta[5,6] [1,4]oxazino[4,3-e]pyrazolo[3,4-h]pyrido [2,3-b][1,5,7,11]oxatriazacyclotetradecin-15-one]	4	5

More lines, now with the values behind:

SMILES	GI50 (BaF3 EML4-ALK) [nM]	GI50 (BaF3 KIF5B-RET) [nM]	GI50 (BaF3 KIF5B-RET_G810R) [nM]	GI50 (BaF3 KIF5B-RET_V804M) [nM]	IC50 (KM12 cell (TPM3-TRKA)) [nM]	IC50 (KG-1) [nM]
C[C@H]1CNC(=O)c2cnn3cc4c(nc23)N(Cc2cc(F)cnc2O1)[C@@H]1CCCC[C@@H]1O4 [Compound 12, (4aR,12S,21aS)-8-fluoro-12-methyl-1,2,3,4,4a,13,14,21a-octahydro-6H-18, 20-(metheno)pyrazolo[4′,3′:6,7]pyrido [3′,2′:12,13][1,4,8, 10]oxatriazacyclotridecino[9,10-c][1,4]benzoxazin-15(12H)-one]	2710	101	1010	4620	13.8	160
O=C1NC2(CC2)COc2ncc(F)cc2CN2c3nc4c1cnn4cc3O[C@H]1CCC[C@H]12 [Compound 18, (3a′R,20a′S)-7′-fluoro-1′H,2′H,3′H,3a′H, 5′H,11′H,13′H,14′H,20a′H-spiro[cyclopropane-1,12′-[10,20]dioxa[4,9,13,16,17,18][hexaaza [17,19](metheno)cyclopenta[5,6][1,4]oxazino[3,4-i]pyrazolo[4,3-f]pyrido [3,2-l][1,4,8,10]oxatriazacyclotridecin]-14′-one]	77.2	7.1	24.4	1530	11.3	16.9
O=C1NCCCOc2ncc(F)cc2CN2c3nc4c1cnn4cc3O[C@H]1CCC[C@H]12 [Compound 19, (3aR,21aS)-7-fluoro-2,3,3a,11,12,13,14,21a-octahydro-1H,5H,15H-18,20-(metheno)cyclopenta[5,6][1,4]oxazino[4,3-e]pyrazolo[3,4-h]pyrido[2,3-b][1,5,7,11]oxatriazacyclotetradecin-15-one]	895	5.2	78	3070	7.8	73.1
O=C1NCC2(CC2)COc2ncc(F)cc2CN2c3nc4c1cnn4cc3O[C@H]1CCC[C@H]12 [Compound 20, (3a′R,21a′S)-7′-fluoro-1′H,2′H,3′H,3a′H, 5′H,11′H,13′H,14′H,15′H,21a′H-spiro[cyclopropane-1,12′-[10,21]dioxa[4,9,14,17,18,19][hexaaza [18,20](metheno)cyclopenta[5,6][1,4]oxazino[4,3-e]pyrazolo[3,4-h]pyrido [3,2-b][1,5,7,11]oxatriazacyclotetradecin]-15′-one]	1400	1.1	7.8	1860	0.5	2.4
CC1(C)COc2ncc(F)cc2CN2c3nc4c(cnn4cc3O[C@H]3CCC[C@H]32)C(=O)N1 [Compound 21, (3aR,20aS)-7-fluoro-12,12-dimethyl-2,3,3a,12,13,20a-hexahydro-1H,5H-17,19-(metheno)cyclopenta[5,6] [1,4]oxazino[3,4-i]pyrazolo[4,3-f]pyrido [3,2-l][1,4,8,10]oxatriazacyclotridecin-14(11H)-one]	462	< 0.2	82	3460	13.8	86.9
O=C1NC2(CCC2)COc2ncc(F)cc2CN2c3nc4c1cnn4cc3O[C@H]1CCC[C@H]12 [Compound 22, (3a′R,20a′S)-7′-fluoro-1′H,2′H,3′H,3a′H, 5′H,11′H,13′H,14′H,20a′H-spiro[cyclobutane-1,12′-[10,20]dioxa[4,9,13,16,17,18][hexaaza [17,19](metheno)cyclopenta[5,6][1,4]oxazino[3,4-i]pyrazolo[4,3-f]pyrido [3,2-l][1,4,8,10]oxatriazacyclotridecin]-14′-one]	157	< 0.2	128	1760	49.3	156
O=C1NCC2(CCC2)COc2ncc(F)cc2CN2c3nc4c1cnn4cc3O[C@H]1CCC[C@H]12 [Compound 23, (3a′R,21a′S)-7′-fluoro-1′H,2′H,3′H,3a′H, 5′H,11′H,13′H,14′H,15′H,21a′H-spiro[cyclobutane-1,12′-[10,21]dioxa[4,9,14,17,18,19][hexaaza [18,20](metheno)cyclopenta[5,6][1,4]oxazino[4,3-e]pyrazolo[3,4-h]pyrido [2,3-b][1,5,7,11]oxatriazacyclotetradecin]-15′-one]	1680	98.9	422	3000	52.9	228
O=C1N[C@@H]2CCC[C@@H]2Oc2ncc(F)cc2CN2c3nc4c1cnn4cc3O[C@H]1CCC[C@H]12 [Compound 24, (3aS,11aR,14aS,21aR)-18-fluoro-2,3,3a,11,11a,12,13,14,14a,21a-decahydro-1H,10H,20H-7,5-(metheno)cyclopenta[b]cyclopenta[5,6][1,4] oxazino[3,4-i]pyrazolo[4,3-f]pyrido[3,2-l][1,4,8,10]oxatriazacyclotridecin-10-one]	469	1.8	73.6	1220	2.8	8.7
